Target: T1, GRA38-6xHis (Toxoplasma gondii, UniProt A0A7J6JXD8)
T1 construct: gene TGRH88_051660; signal peptide (first 23 residues) removed; C-terminal 6xHis in pET-29b(+), codon-optimised, E. coli BL21; tag kept
Test: malachite green phosphate release assay (PAP activity)
Assay type: biochemical
Details: read-out: % inhibition at 1 mM

T1 sequence (A0A7J6JXD8 entry or part of it): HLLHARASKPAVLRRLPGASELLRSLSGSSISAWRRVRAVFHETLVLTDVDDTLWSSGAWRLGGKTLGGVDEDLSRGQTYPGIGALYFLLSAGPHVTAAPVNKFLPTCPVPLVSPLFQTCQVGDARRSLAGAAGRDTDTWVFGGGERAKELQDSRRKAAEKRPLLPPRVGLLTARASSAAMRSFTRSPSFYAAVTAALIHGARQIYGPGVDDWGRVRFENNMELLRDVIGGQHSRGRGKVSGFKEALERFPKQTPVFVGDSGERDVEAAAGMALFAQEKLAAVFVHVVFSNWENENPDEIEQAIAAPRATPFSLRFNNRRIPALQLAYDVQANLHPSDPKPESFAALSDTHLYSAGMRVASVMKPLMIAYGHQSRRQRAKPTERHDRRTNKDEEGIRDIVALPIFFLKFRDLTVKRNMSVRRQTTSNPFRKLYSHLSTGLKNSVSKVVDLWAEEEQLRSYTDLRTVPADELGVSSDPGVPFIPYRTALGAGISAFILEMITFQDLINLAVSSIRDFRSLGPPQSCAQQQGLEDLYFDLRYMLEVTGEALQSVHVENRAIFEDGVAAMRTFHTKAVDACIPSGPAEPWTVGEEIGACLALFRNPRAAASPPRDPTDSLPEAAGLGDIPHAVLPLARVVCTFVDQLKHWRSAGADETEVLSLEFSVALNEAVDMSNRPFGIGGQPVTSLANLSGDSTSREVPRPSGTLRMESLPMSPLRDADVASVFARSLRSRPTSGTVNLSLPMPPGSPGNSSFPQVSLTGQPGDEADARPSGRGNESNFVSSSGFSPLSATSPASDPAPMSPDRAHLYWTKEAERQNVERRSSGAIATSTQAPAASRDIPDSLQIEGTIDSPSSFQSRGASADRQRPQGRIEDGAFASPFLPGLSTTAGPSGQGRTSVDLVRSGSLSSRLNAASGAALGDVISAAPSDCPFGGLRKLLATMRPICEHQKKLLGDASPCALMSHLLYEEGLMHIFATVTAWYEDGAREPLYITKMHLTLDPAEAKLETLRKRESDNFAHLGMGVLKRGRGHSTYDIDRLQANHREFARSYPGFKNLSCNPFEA

## O=CC(=O)c1ccccc1 [phenylglyoxal]
  inhibition at 1000 µM: 45%
